Patent US10617763B2, “Compositions and methods for the treatment of presbyopia” (Presbyopia Therapies, LLC, priority 2013, dated 2020)
“And” between values parts separate entries of the source, which are not always exact repeats. Identical values can stand only once. Like-named read-outs stand apart in the source and are kept apart here.

Experiments:
[1] = system: eye; assay: Compositions containing mannitol with various nonionic surfactants (Example 15, Table 10); set-up: species or system human; conditions: in vivo
Description: Example 15. Use of a Compound Containing Mannitol with Various Nonionic Surfactants Compositions
Of those tested only Brij® 35 was marginal due to the significant corneal irritation, hyperemia and […] that resulted.
Duration was excellent for each nonionic surfactant tested.

[2] = system: eye; conditions: for indoor night vision: pH 7.5; for dimming: pH 7.0
Description: However, because α-2 agonists are shifted to their ionized equilibrium an acidic pH is somewhat offset by the fact such agonists exert greater affect at neutral or alkaline pH. Therefore each α-2 agonist has a preferred pH range depending on its lipophilicity and pKa value when added to the inventive compositions with aceclidine.

[3] = system: eye; conditions: cited from earlier work
[4] = system: emmetrope over the age of 45; assay: Effects of pilocarpine and aceclidine with or without tropicamide and carrier on near and distance vision (FIG. 1); format: in vivo, human
Description: Subject is an emmetrope over the age of 45 with a baseline near vision of 20.100 and baseline distance vision of 20.20. Topical administration to the eye of 1% w/v pilocarpine in saline solution results in an improvement of near vision to 20.40 (8a), however this improvement comes at the expense of a reduction in distance vision to 20.100 (8b). […] A proper drug carrier can also have a beneficial effect.

[5] = Stability of aceclidine in cold chain storage, HPLC (Example 10); format: physicochemical; conditions: Example 10 composition
Procedure: Example 10 Stabile Aceclidine Formulations
20 samples of the above composition were divided evenly and stored at 25° C. and 4° C. Prior to storage, initial concentrations of aceclidine were measured using […] (“HPLC”). The amount of aceclidine in each solution was calculated by the area under the principal peak compared to a reference solution of aceclidine. Samples were then subject to storage for 3 months. Aceclidine measurements were taken at 1, 2 and 3 months.

[6] = system: eye; assay: Effect of concentration of aceclidine, brimonidine, guanfacine, fadolmidine, tropicamide and additives (Example 3); format: in vivo, human
Procedure: All percentages are w/v. Scores for nasal congestion, stinging initial, stinging, 3 min, redness initial, redness 15 min, whitening, pain and overall are out of 4.
“pt” reflects size of print materials, 4 being equivalent to 20/20 vision and 3 to 20/15 vision.
D/C stands for discontinued after eye washing due to intolerable stinging.
(§1) All baseline vision data was based on vision corrected with distance contact lenses.
AB4T and AB6T were repeated both monocularly and binocularly.

[7] = system: eye; assay: Effect of concentration of aceclidine and tropicamide, topical instillation (Example 2); format: in vivo, human
Description: as §1

[8] = system: presbyopic subjects; assay: Effect of aceclidine on vision of subjects aged 47 to 67 years (Example 1); format: in vivo, human; conditions: for L Post Dist / L Post Near / R Post Dist / R Post Near: Post Gtt 15″; for L Post Dist: left eye distance vision; for L Post Near: left eye near vision; for R Post Dist: right eye distance vision; for R Post Near: right eye near vision; for Effect: duration of effect
Procedure: Example 1 Effect of Aceclidine on Vision of Subjects Aged 47 to 67 Years
As aceclidine is an […], the clinical effectiveness may vary with different ratios. For the present studies a nearly exact 50:50 ratio of stereoisomers was measured as best determined by polarimetry.
After administration of the composition all subjects experienced an improvement in their near vision that lasted from 7 to 12 hours.

[9] = system: eye; assay: Modulation of aceclidine concentrations in a preferred embodiment (Example 6); format: in vivo, human
Procedure: Example 6 Modulation of Aceclidine Concentrations in a Preferred Embodiment
For 1.35% w/v aceclidine— • Stinging on topical instillation 0.25/4.0 (lasting about 2-5 seconds); • Induced redness at 10 minutes: 1.0 to 1.5/4.0; • Induced redness at 30 minutes: 0.0 to 0.25/4.0; • Comfort: very high. • Wetting: very high, the eye maintaining sensation of improved wetting for most of a 24 hour period after a single topical instillation. • Depth of Focus distance: excellent. • Depth of Focus near: excellent.
In testing the above formulations on several subjects it was discovered that there is a slight range in clinical effect depending on the concentration of aceclidine, where 1.35%-1.55% w/v aceclidine is preferred, but for which 1.35% w/v and 1.45% w/v confer the desired benefits on most subjects.
Further, it is discovered that the clinical effect of 1.35% w/v aceclidine can be improved when instilled as follows: […]

[10] = aceclidine 1.1% w/v plus 0.125% w/v tropicamide (subjects 4 and 5)
[11] = aceclidine 1.5% w/v, same vehicle, one subject

Poloxamer 188
Redness 1 hr [1]: 0.25-2.5 | Stinging [1]: 0-2

tropicamide
indoor night vision ([2]; 0.035% w/v tropicamide in 1.55% w/v aceclidine composition): slight dimming | dimming ([2]; 0.040% w/v tropicamide in 1.53% or 1.45% w/v aceclidine composition): moderate dimming | indoor night vision ([2]; 0.042% w/v tropicamide in 1.55% w/v aceclidine composition): normal indoor night vision | dimming ([2]; 0.044% w/v tropicamide in 1.53% or 1.45% w/v aceclidine composition): dimming became almost undetectable | brow ache ([2]; tropicamide 0.01% w/v with aceclidine): slightly reduce brow ache | brow ache ([2]; tropicamide 0.030% w/v with aceclidine): further reduce brow ache | brow ache ([2]; tropicamide 0.04% to about 0.07% w/v with aceclidine): completely eliminate brow ache

Poloxamer 407
Redness 1 hr [1]: 1 | Stinging [1]: 0.5

Brc1c(NC2=NCCN2)ccc2nccnc12 [brimonidine]
rebound redness, patients ([3]; brimonidine 0.20% w/v (Alphagan®) twice daily): 25% | tachyphylaxis of pupil modulation, treated subjects ([3]; brimonidine 0.20% w/v topically for night vision, within four weeks of use): ~100%

CC[C@@H]1C(=O)OC[C@@H]1Cc1cncn1C [pilocarpine]
distance blur ([3]; pilocarpine instilled monocularly): 2-3 lines | pupil size ([3]; upon instillation of 1.0% pilocarpine, most subjects): ≥ 2.3 mm

Tyloxapol
Redness 1 hr [1]: 0.25-2.5 | Stinging [1]: 0-2

Polyoxyl 35 castor oil
Redness 1 hr [1]: 0.25 | Stinging [1]: 0

Polysorbate 80
Redness 1 hr [1]: 0.5 | Stinging [1]: 0.25

CC(=O)OC1CN2CCC1CC2 (racemic) [Aceclidine, aceclidine]
time period of near vision improvement ([4]; 1.55% w/v aceclidine in saline solution): 6 h | near vision ([4]; aceclidine in carrier plus 0.042% w/v tropicamide): 20.15 | near vision ([4]; aceclidine in carrier: 5.5% HPβCD, 0.75% CMC, 0.25% NaCl, 0.01% BAK): better than 20.20 | distance vision ([4]; miotic in saline solution (1% w/v pilocarpine; 1.55% w/v aceclidine), baseline distance vision 20.20): without any effect on the baseline distance vision | near vision ([4]; miotic in saline solution (1% w/v pilocarpine; 1.55% w/v aceclidine), baseline near vision 20.100): 20.40 | aceclidine remaining, 4° C., 1 month [5]: 93% | aceclidine remaining, 4° C., 2 months [5]: 92% | aceclidine remaining, 4° C., 3 months [5]: 88% | aceclidine remaining, 4° C., Initial [5]: 100% | aceclidine remaining, 25° C., 1 month [5]: 92% | aceclidine remaining, 25° C., 2 months [5]: 75% | aceclidine remaining, 25° C., 3 months [5]: 50% | aceclidine remaining, 25° C., Initial ([5]; pH about 4.75): 100% | near vision improvement ([6]; aceclidine 1.25% w/v (not shown)): 20.25-20.30 | duration of corrected near and distance vision to 20.20 or better ([6]; aceclidine 1.55% w/v): at least 6 hours | size of the pupil ([6]; aceclidine 1.55% w/v, 30 minutes after topical instillation): about 1.63 mm | duration (hrs) ([6]; in vivo): about 7.5 hrs | Time (hr) ([7]; duration of the effect): at least 10 hr | Miosis (OU) (1 hr) ([7]; pupil size, both eyes, 1 hour after topical instillation, baseline pupil 3 mm photopic, 5 mm mesopic): 1.63 mm | L Post Dist [8, 10]: 20.15 and 20.20 | L Post Dist [8, 11]: 20.20 (2×) and 20.30 and 20.25 (2×) | L Post Near [8, 10]: 20.15 and 20.25 | L Post Near [8, 11]: 20.15 (3×) and 20.30 and 20.20 | R Post Dist [8, 10]: 20.15 and 20.20 | R Post Dist ([8]; aceclidine 1.5% w/v in 5.5% HPβCD, 0.75% CMC, 0.25% NaCl, 0.01% BAK, one subject): 20.20 (3×) and 20.25 (2×) | R Post Near [8, 10]: 20.20 and 20.25 | R Post Near [8, 11]: 20.15 (3×) and 20.20 and 20.25 | Effect [8, 10]: 12.00 h and 7.00 h | Effect [8, 11]: 8.00 h (4×) and 9.00 h | anterior chamber shallowing ([2]; with further inclusion of a cycloplegic agent): 0.04 mm | Comfort ([9]; 1.35% w/v aceclidine): very high | Depth of Focus distance ([9]; 1.35% w/v aceclidine): excellent | Depth of Focus near ([9]; 1.35% w/v aceclidine): excellent | Stinging on topical instillation ([9]; 1.35% w/v aceclidine in the preferred embodiment of Example 6, lasting about 2-5 seconds): 0.25 /4.0
